Series [1] is described as follows: Rodent pharmacokinetics study. Format: in vivo, Sprague-Dawley rats. To be noted: rat; for half-life: male, Sprague-Dawley, plasma, elimination phase half-life; for i.v. AUC: intravenous 1 mg/kg; for p.o. AUC: oral 5 mg/kg in 0.5% CMC/0.1% Tween-80 (HMC-C-01-A in 2% dimethylacetamide/20% hydroxypropyl-β-cyclodextrin); for Bioavail, F: tentative oral bioavailability, F=AUC(p.o.)×Dose(i.v.)/AUC(i.v.)×Dose(p.o.). As for the experimental part: Absorption and metabolic stability were studied using an in vivo pharmacokinetics assay.
Three male Sprague-Dawley rats, aged 8-12 weeks, were dosed with test compounds administered either orally or intravenously (dose level of 1 mg/kg body weight intravenous or 5 mg/kg body weight orally). Test compounds were formulated in 0.5% carboxymethylcellulose (CMC)/0.1% Tween-80 for administration via the oral route, or in 5% DMSO/10% solutol in saline for administration via the intravenous route. For compound HMC-C-01-A the oral administration was formulated in 2% dimethylacetamide/20% hydroxypropyl-β-cyclodextrin in water. Animals were given free access to food throughout the study except for fasting overnight and until 2 hours post dose on the day of dosing.
Blood samples were taken from the retro-orbital plexus at the following time points and placed in microtubes containing 20% K2EDTA solution:
Oral Dosing: predose; 0.25, 0.5, 1, 2, 4, 6, 8, and 24 hours post dose.
Intravenous Dosing: predose; 0.08, 0.25, 0.5, 1, 2, 4, 8, and 24 hours post dose.
Blood samples were centrifuged to obtain plasma, which was transferred to a separate container and frozen at −20° C.
For analysis, samples were thawed at room temperature and prepared by protein precipitation with acetonitrile spiked with internal standard (500 ng/mL glipizide) in the ratio 1:4 with plasma. The samples were then vortexed for 5 minutes and centrifuged for 10 minutes at 20,600×g at 4° C. 100 μL of the supernatant was collected for analysis. The standard samples were prepared similarly, after spiking blank rat plasma samples with 10 μL of analyte.
The pharmacokinetic parameters for the test compounds were calculated by Phoenix WinNonlin version 6.3 (Pharsight Corp, CA) using standard non-compartmental methods. Peak plasma concentrations (Cmax) and time of the peak plasma concentration (Tmax) were the observed values. The area under the plasma concentration-time curve (AUC) was determined by use of the linear trapezoidal rule up to the last measurable concentration (AUClast) and thereafter by extrapolation of the terminal elimination phase to infinity (AUCinf). The terminal elimination rate constant (kel) was determined by regression analysis of the linear terminal portion of the log plasma concentration-time curve. The elimination phase half-life (t1/2) was calculated as 0.693/kel.

Series [2] addresses T1, hERG ion channel (Homo sapiens, UniProt Q12809).
T1 construct: expressed in transfected cells; host or cells: Chinese Hamster Ovary cells (hERG-CHO), stably transfected
Nature of the series: hERG Ion Channel Assay (Q-patch, hERG-CHO cells). Format: cell-based. To be noted: hERG tail current, hERG-CHO cells, Q-patch; read-out: IC50 (1). Put shortly:
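Automated whole-cell Q-patch on hERG-CHO cells (held at 30° C for 24–48 h beforehand), −80 mV holding, +20 mV for 2 s then −40 mV for 1 s to elicit tail current every 5 s. Cumulative rising concentrations, 5 min each; percent tail-current inhibition fitted to three-parameter logistic for IC50.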
For orientation: The hERG channel carries a current that helps repolarise heart muscle cells.

Series [3] has as its system J774 macrophages. Nature of the series: Resazurin Macrophage J774 Viability Assay. To be noted: Mus musculus, 12 point concentration range 10 μM to 0.5 nM, n = 4 replicates, mean of 3 independent experiments, 72 hour incubation, read-out: IC50 (2). Format: cell-based. (Resazurin is reduced to fluorescent resorufin, in cell work by metabolically active cells.)
Series [4] in a line: Maximum Tolerated Dose, Sprague-Dawley rats. As to conditions: rat, in vivo, oral, ascending dose. As to the method: The acute safety of the compounds was assessed in rats in order to enable determination of the maximum tolerated dose (MTD), an indication of a compound's safety in animals. The higher the MTD, the greater is the potential safety of the compound being tested.
Two male and two female Sprague-Dawley rats, aged 8-12 weeks, were dosed at each dose level in an ascending dose study design. The test compounds were administered orally as a suspension formulated in 0.5% carboxymethylcellulose (CMC)/0.1% Tween-80 in a dose volume of 10 mL/kg. Animals were given free access to food throughout the study.
Animals were observed on at least two occasions during the first hour following dosing, approximately 30 minutes apart, and thereafter at hourly intervals for the remainder of the dosing day for at least 4 hours. […] The nature and severity, where appropriate, of the clinical signs and time were recorded at each observation. Observations included changes in the skin, fur, eyes, and mucous membranes, and also the respiratory, circulatory, autonomic, and central nervous system, as well as somatomotor activity and behaviour pattern. Particular attention was directed towards the observation of tremors, convulsions, salivation, diarrhoea, lethargy, sleep, and coma.
At the completion of the study, the results were expressed as the maximum tolerated dose for each compound, this being the highest of each without unacceptable toxicity.
The maximum dose without unacceptable side-effects was determined to be the MTD (expressed in mg/kg).

Where [5] appears, read: female Sprague-Dawley rats, read-out: Maximum tolerated dose, Females.
The mark [6] stands for this setting: male Sprague-Dawley rats, read-out: Maximum tolerated dose, Males.

Molecules are shown by their SMILES. Read-outs that look alike come from different tables or passages of the source.

T1 sequence (Q12809 whole entry): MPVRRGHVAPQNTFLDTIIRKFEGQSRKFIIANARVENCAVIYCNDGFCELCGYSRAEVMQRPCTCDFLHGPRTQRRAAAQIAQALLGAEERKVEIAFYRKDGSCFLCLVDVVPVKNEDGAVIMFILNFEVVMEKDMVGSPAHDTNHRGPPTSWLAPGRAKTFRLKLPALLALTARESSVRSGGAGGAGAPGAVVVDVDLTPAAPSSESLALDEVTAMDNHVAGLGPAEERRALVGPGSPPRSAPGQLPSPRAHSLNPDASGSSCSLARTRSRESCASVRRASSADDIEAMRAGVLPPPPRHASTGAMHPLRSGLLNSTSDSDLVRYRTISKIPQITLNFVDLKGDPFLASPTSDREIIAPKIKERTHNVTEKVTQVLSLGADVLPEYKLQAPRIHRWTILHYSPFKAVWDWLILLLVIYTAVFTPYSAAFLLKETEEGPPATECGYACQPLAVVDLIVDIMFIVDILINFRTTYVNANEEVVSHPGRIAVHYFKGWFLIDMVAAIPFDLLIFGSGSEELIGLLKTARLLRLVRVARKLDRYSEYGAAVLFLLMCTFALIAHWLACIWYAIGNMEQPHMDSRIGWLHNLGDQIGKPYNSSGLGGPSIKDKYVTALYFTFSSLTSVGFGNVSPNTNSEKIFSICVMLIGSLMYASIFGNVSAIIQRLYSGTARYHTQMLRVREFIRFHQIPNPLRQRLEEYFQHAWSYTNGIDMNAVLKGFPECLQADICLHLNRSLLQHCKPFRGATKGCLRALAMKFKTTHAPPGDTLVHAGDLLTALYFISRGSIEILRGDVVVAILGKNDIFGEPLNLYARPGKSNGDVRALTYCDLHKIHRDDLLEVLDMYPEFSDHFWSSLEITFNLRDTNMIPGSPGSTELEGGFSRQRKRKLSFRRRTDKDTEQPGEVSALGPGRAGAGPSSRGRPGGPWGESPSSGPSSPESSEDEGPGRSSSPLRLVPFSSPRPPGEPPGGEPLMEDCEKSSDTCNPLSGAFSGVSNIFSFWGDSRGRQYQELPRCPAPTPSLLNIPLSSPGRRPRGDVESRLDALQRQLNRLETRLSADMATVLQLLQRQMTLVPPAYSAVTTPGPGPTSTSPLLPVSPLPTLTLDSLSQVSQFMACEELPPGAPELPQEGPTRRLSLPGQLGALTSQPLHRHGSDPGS

By half-life is commonly meant the time needed for the level to fall by half in the phase considered. Lower therefore signals fast loss. What is called IC50 is the concentration that inhibits the measured activity by half. For the molecule `C[C@]1(O)CC[C@H](NS(=O)(=O)c2ccc(-c3c(F)cc(F)cc3F)cc2)CC1` [HMC-C-03-A, 2′,4′,6′-Trifluoro-N-((1r,4r)-4-hydroxy-4-methylcyclohexyl)biphenyl-4-sulfonamide], in series [1], the half-life is 2.4 h; the “i.v. AUC” value was 1427 ng·min/mL; the p.o. AUC amounted to 65.2 ng·h/mL; the “Bioavail, F” value is listed as 55%. Besides, the 50% inhibitory concentration (IC50) in series [2] is more than 30000 nM. Also, the 50% inhibitory concentration (IC50) in series [3] worked out at 410 nM. Further, in series [4] (setting [5]), the MTD came out at 30 mg/kg. Further, the MTD in series [4] (setting [6]) is 30 mg/kg.

Take `C[C@]1(O)CC[C@@H](NS(=O)(=O)c2ccc(-c3ccc(F)cc3F)c(F)c2)CC1` [HMC-C-04-B, 2,2′,4′-Trifluoro-N-((1s,4s)-4-hydroxy-4-methylcyclohexyl)-[1,1′-biphenyl]-4-sulfonamide]: in series [1], the half-life was 5.5 h; the p.o. AUC was 156 ng·h/mL; the “Bioavail, F” value was 59%. Besides, the IC50 in series [3] was 60 nM.

For the molecule `O=S(=O)(N[C@H]1CC[C@H](O)CC1)c1ccc(-c2ncc(Cl)cc2Cl)cc1` [ABD836, reference compound], in series [1], the half-life is 5.3 h; the “i.v. AUC” value was 2142 ng·min/mL; the p.o. AUC turned out to be 98.8 ng·h/mL; the “Bioavail, F” value is listed as 55%.

As for `C[C@]1(O)CC[C@@H](NS(=O)(=O)c2ccc(-c3ncc(F)cc3F)c(F)c2)CC1` [HMC-N-01-B, 4-(3,5-Difluoropyridin-2-yl)-3-fluoro-N-((1s,4s)-4-hydroxy-4-methylcyclohexyl)benzenesulfonamide], in series [1], the half-life is 9.1 h; the “i.v. AUC” value is listed as 2824 ng·min/mL; the p.o. AUC is 141 ng·h/mL; the “Bioavail, F” value was 60%. Moreover, the half-maximal inhibitory concentration (IC50) in series [3] worked out at 140 nM.

As for `C[C@]1(O)CC[C@@H](NS(=O)(=O)c2ccc(-c3ccc(F)cc3C(F)(F)F)cc2)CC1` [HMC-C-02-B, 4′-Fluoro-N-((1s,4s)-4-hydroxy-4-methylcyclohexyl)-2′-(trifluoromethyl)-[1,1′-biphenyl]-4-sulfonamide], in series [3], the half-inhibitory concentration (IC50) worked out at 1740 nM.

Take `C[C@]1(O)CC[C@@H](NS(=O)(=O)c2ccc(-c3c(F)cc(F)cc3F)cc2)CC1` [HMC-C-03-B, 2′,4′,6′-Trifluoro-N-((1s,4s)-4-hydroxy-4-methylcyclohexyl)-[1,1′-biphenyl]-4-sulfonamide]: in series [1], the half-life was 8.3 h; the p.o. AUC was 157 ng·h/mL; the “Bioavail, F” value was determined as 116%. For the same molecule, the half-maximal inhibitory concentration (IC50) in series [3] was determined as 200 nM.

For the molecule `C[C@]1(O)CC[C@@H](NS(=O)(=O)c2ccc(-c3ccc(Cl)cc3C#N)cc2)CC1` [HMC-C-01-B, 4′-Chloro-2′-cyano-N-((1s,4s)-4-hydroxy-4-methylcyclohexyl)-[1,1′-biphenyl]-4-sulfonamide], in series [1], the half-life was 5.7 h; the “i.v. AUC” value worked out at 1539 ng·min/mL; the p.o. AUC was 85.3 ng·h/mL; the “Bioavail, F” value turned out to be 67%. In addition, in series [3], the IC50 was 160 nM.

Consider `C[C@]1(O)CC[C@@H](NS(=O)(=O)c2ccc(-c3ncc(Cl)cc3Cl)cc2)CC1` [HMC-N-03-B, 4-(3,5-Dichloropyridin-2-yl)-N-((1s,4s)-4-hydroxy-4-methylcyclohexyl)benzenesulfonamide], for which, in series [1], the half-life is 7.4 h; the p.o. AUC stood at 193 ng·h/mL; the “Bioavail, F” value worked out at 84%. Further, the IC50 in series [3] was determined as 80 nM.

For the molecule `C[C@]1(O)CC[C@H](NS(=O)(=O)c2ccc(-c3ccc(Cl)cc3C#N)cc2)CC1` [HMC-C-01-A, 4′-Chloro-2′-cyano-N-((1r,4r)-4-hydroxy-4-methylcyclohexyl)biphenyl-4-sulfonamide], in series [1], the half-life was 6.2 h; the “i.v. AUC” value is 900 ng·min/mL; the p.o. AUC was 66.7 ng·h/mL; the “Bioavail, F” value is 89%. Moreover, the IC50 in series [2] was 19300 nM. Also, in series [3], the half-maximal inhibitory concentration (IC50) worked out at 1890 nM. The MTD in series [4] (setting [5]) came to 70 mg/kg. In series [4] (setting [6]), the MTD came out at 70 mg/kg.

As to `Cc1cc(S(=O)(=O)N[C@H]2CC[C@H](O)CC2)ccc1-c1ccc(F)cc1F` [ABD735], in series [1], the half-life was 3.8 h; the “i.v. AUC” value is 1081 ng·min/mL; the “Bioavail, F” value was found to be 83%. Also, the MTD in series [4] (setting [5]) was 20 mg/kg. In addition, in series [4] (setting [6]), the MTD turned out to be 10 mg/kg.

Take `C[C@]1(O)CC[C@H](NS(=O)(=O)c2ccc(-c3ncc(F)cc3F)cc2)CC1` [HMC-N-02-A, 4-(3,5-Difluoropyridin-2-yl)-N-((1r,4r)-4-hydroxy-4-methylcyclohexyl)benzenesulfonamide]: in series [1], the half-life was 6.3 h; the p.o. AUC worked out at 55 ng·h/mL; the “Bioavail, F” value is recorded as 43%. Also, the 50% inhibitory concentration (IC50) in series [2] worked out at 231000 nM. Besides, the half-maximal inhibitory concentration (IC50) in series [3] turned out to be 4590 nM. Moreover, the MTD in series [4] (setting [5]) was more than 200 mg/kg. Also, the MTD in series [4] (setting [6]) is more than 200 mg/kg.

`Cc1cc(S(=O)(=O)NC2CCC(C)(O)CC2)ccc1-c1ccc(F)cc1F` (single isomer, unassigned) [REF001, reference compound]: in series [1], the half-life was 7.2 h; the “i.v. AUC” value stood at 963 ng·min/mL; the “Bioavail, F” value came out at 50%. In series [3], the concentration for half-maximal inhibition (IC50) was 50 nM. Further, in series [4] (setting [5]), the MTD was 7.5 mg/kg. Moreover, the MTD in series [4] (setting [6]) was determined as 10 mg/kg.

On to `C[C@]1(O)CC[C@@H](NS(=O)(=O)c2ccc(-c3ccc(F)cc3F)cc2)CC1` [ABD899, reference compound], for which, in series [1], the half-life is 10.8 h; the “i.v. AUC” value worked out at 2133 ng·min/mL; the “Bioavail, F” value is given as 50%. For the same molecule, the IC50 in series [2] amounted to 2900 nM. In series [4] (setting [5]), the MTD is 30 mg/kg. The MTD in series [4] (setting [6]) came out at 30 mg/kg.

In the case of `C[C@]1(O)CC[C@@H](NS(=O)(=O)c2ccc(-c3ncc(F)cc3F)cc2)CC1` [HMC-N-02-B, 4-(3,5-Difluoropyridin-2-yl)-N-((1s,4s)-4-hydroxy-4-methylcyclohexyl)benzenesulfonamide], in series [1], the half-life is 6 h; the “i.v. AUC” value is recorded as 1931 ng·min/mL; the p.o. AUC amounted to 107 ng·h/mL; the “Bioavail, F” value is listed as 66%. Also, the IC50 in series [3] was found to be 360 nM.

Turning to `C[C@]1(O)CC[C@H](NS(=O)(=O)c2ccc(-c3ccc(F)cc3F)c(F)c2)CC1` [HMC-C-04-A, 2,2′,4′-Trifluoro-N-((1r,4r)-4-hydroxy-4-methylcyclohexyl)-[1,1′-biphenyl]-4-sulfonamide], in series [3], the IC50 stood at 500 nM.

For `C[C@]1(O)CC[C@H](NS(=O)(=O)c2ccc(-c3ncc(Cl)cc3Cl)c(F)c2)CC1` [HMC-N-04-A, 4-(3,5-Dichloropyridin-2-yl)-3-fluoro-N-((1r,4r)-4-hydroxy-4-methylcyclohexyl)benzenesulfonamide], in series [1], the half-life is 2.9 h; the “i.v. AUC” value was found to be 1279 ng·min/mL; the p.o. AUC amounted to 70 ng·h/mL; the “Bioavail, F” value was found to be 66%. The IC50 in series [2] was more than 30000 nM.
